This note sets out measurements from US20200237779A1, “COMBINATION THERAPY WITH A BET INHIBITOR AND A BCL-2 INHIBITOR” (Hoffmann-La Roche Inc., priority 2017, published 2020).

For this assay, the system named is KMS-12BM MM xenografts. As to the kind of experiment: In vivo antitumor efficacy against KMS-12BM MM xenografts. To be noted: D14-25; for Antitumor efficacy (result in words): KMS-12BM xenografts, RG6146 30 mg/kg ip, venetoclax 100 mg/kg po, single agent or combination; for Tumor Regression (%) / npTCR and CI (non-parametric Treatment to Control Ratio) / TGI % (tumor growth inhibition): s.c. KMS-12BM human MM xenografts in female CIEA NOG mice, RG6146 30 mg/kg ip QD, venetoclax 100 mg/kg po QD, Day 25; for TGI % (tumor growth inhibition): compared to control. Further details: species or system CIEA NOG mice. Here is the method: The in vivo antitumor efficacy of BET inhibitor RG6146 in combination with Bcl-2 inhibitor venetoclax (GDC-0199) was evaluated against KMS-12BM MM xenografts.
BET inhibitor RG6146 was provided as a powder from Roche, Basel, Switzerland and resuspended prior to use. Bcl-2 inhibitor venetoclax was provided by Genentech, South San Francisco, USA and formulated prior to use.
The original KMS-12BM human Multiple Myeloma cell line (MM) was purchased from ATCC (Manassas, V., USA). Expansion of tumor cells for the transplantation was done by the TAP CompacT CellBase Cell Culture Roboter according to the protocol. Tumor cell line was routinely cultured in RPMI 1640 medium, FCS 10% and L-Glutamin 2 mM at 37° C. in a water-saturated atmosphere at 5% CO2. Culture passage was performed with trypsin/EDTA 1× splitting twice/week and passage 3 used for transplantation.
Female CIEA NOG mice (Taconic), age 5-7 weeks at arrival, maintained under specific-pathogen-free condition with daily cycles of 12 h light/12 h darkness according to committed guidelines. Experimental study protocol was reviewed and approved by local government. After arrival animals were maintained in animal facility for one week to get accustomed to new environment and for observation. Continuous health monitoring was carried out on regular basis. Diet food and autoclaved water were provided ad libitum.
Animals were controlled daily for clinical symptoms and detection of adverse effects. For monitoring throughout the experiment body weight of animals was documented.
Animal treatment started after randomisation when median tumor size was about 170 mm^3. The vehicle was administered ip once daily (QD) on D14-25. BET inhibitor RG6146 ip treatment at 30 mg/kg was done as single agent and in combination on D14-25. Finally, Bcl-2 inhibitor venetoclax was given orally at 100 mg/kg as single agent and in combination on D14-25.
KMS-12BM human MM cells were s.c. inoculated with Matrigel onto female CIEA-NOG mice. Tumor bearing mice were randomized 14 days later to the indicated study groups and compound treatment initiated. Tumor bearing animals were treated with vehicle control, with the BET inhibitor RG6146 at 30 mg/kg or with Bcl-2 inhibitor venetoclax at 100 mg/kg as single agent and in combination thereof.
On the technique in general: Xenograft models place foreign cells or tissue in a host animal.

For `CC1(C)CCC(CN2CCN(c3ccc(C(=O)NS(=O)(=O)c4ccc(NCC5CCOCC5)c([N+](=O)[O-])c4)c(Oc4cnc5[nH]ccc5c4)c3)CC2)=C(c2ccc(Cl)cc2)C1` [venetoclax, 4-(4-{[2-(4-chlorophenyl)-4,4-dimethylcyclohex-1-en-1-yl]methyl}piprazin-1-yl)-N-({3-nitro-4-[(tetrahydro-2H-pyran-4-ylmethyl)amino]phenyl}sulfonyl)-2-(1H-pyrrolo[2,3-b]pyridin-5-yloxy)benzamide], the “Antitumor efficacy (result in words)” value is given as “weaker activity”; the “Tumor Regression (%)” value came out at 0%; the “npTCR and CI (non-parametric Treatment to Control Ratio)” value was found to be 0.55; the “TGI % (tumor growth inhibition)” value turned out to be 49%.
On the same counts, the results for `Cc1sc2c(c1C)C(c1ccc(Cl)cc1)=N[C@@H](CC(=O)NCCCN1CCN(C)CC1)c1nnc(C)n1-2` [RG6146, 2-[(S)-4-(4-Chloro-phenyl)-2,3,9-trimethyl-6H-1-thia-5,7,8,9a-tetraaza-cyclopenta[e]azulen-6-yl]-N-[3-(4-methyl-piperazin-1-yl)-propyl]-acetamide] are “nearly tumor stasis”, 0%, 0.06 and 94%.
